Source: patent US9763973B2, “Agent for treating HTLV-I associated myelopathy” (NAGASAKI UNIVERSITY, priority 2011, dated 2017)
Where “and” joins values, the source holds several entries; their conditions need not be identical. Equal values may be shown once.

What was measured:
HTLV-I = settings: in vitro; non-patent documents 4-6; cited from earlier work
HAM patients [1] = settings: in vivo test; non-patent documents 4 and 5; cited from earlier work
HAM patients [2] = experiment: spasticity on modified Ashworth scale (MAS), clinical test in HAM patients; format: in vivo, human; settings: individual HAM cases; same s.c. regimen; blank = spasticity absent from the start
Text: Spasticity is one type of hypertonia, and caused by an abnormal increase in the muscle stretch reflex. Clinically, spasticity is a speed-dependent resistance to stretch, which is defined to be the state wherein the muscle is excessively contracted due to the lack of suppression from the central nervous system, which finally leads to an increase in the reflection. As a measurement method of spasticity, the Ashworth scale is well known, and its modified version by Bohannon is often used clinically (modified Ashworth scale; Bohannon R W, Smith M B: Interrater reliability of a Modified Ashworth Scale of Muscle Spasticity. Phys Ther 67: 206-207, 1987). […]
(§1) Test items: the subjective symptoms and neurological observations (including spasticity, gait time, time for descending stairs, motility dysfunction level and the like) were checked at the time of screening, week 0 (initial administration), week 8 from the start of treatment (week 1 after completion of treatment) and week 12 from the start of treatment (week 5 after completion of treatment). Similarly, general clinical tests, and immunological (serum soluble IL-2 receptor (sIL-2R), peripheral blood lymphoblastogenesis test) and virological tests (amount of peripheral blood HTLV-I provirus (real-time quantitative PCR method), anti-HTLV-I antibody titer) were performed.

HAM patients [3] = experiment: time for descending stairs (10 stairs), clinical test in HAM patients; format: in vivo, human; settings: for descending stairs (10 stairs): individual HAM cases, same s.c. regimen; for descending stairs, mean value: mean of tested cases
Text: (§2) The main symptoms of HAM are motility/gait disorders and the like. As items for the clinical evaluation of these symptoms, lower leg motility function (walking time, time for descending stairs, spasticity, motility dysfunction level etc.) tests and the like can be mentioned. By evaluating these items before and after administration of pentosan polysulfate, the treatment effect of subcutaneous injection of pentosan polysulfate on HAM was verified.
(§3) Subject: 12 cases of HAM patients (9 females, 3 males, age; 49-77 years old, duration of illness; 3-52 years) (Table 1).
(§4) Test method: Sodium pentosan polysulfate was subcutaneously administered by 25 mg for the first time (0 week), 50 mg 1 week later, 100 mg once a week from the second week to the 7th week to the brachial region. The test medicament was used in 1 ml ampoule of sodium pentosan polysulfate (100 mg/ml) supplied by bene pharmaChem of Germany.
as §1

[4] = tested on: peripheral blood lymphoblastogenesis; experiment: lymphoblastogenesis test (stimulation index to PHA), clinical test in HAM patients; format: in vivo, human
Procedure: as §3, §4, §1

HAM patients [5] = experiment: 10 m gait time, clinical test in HAM patients; format: in vivo, human; settings: for 10 m gait: individual HAM cases, same s.c. regimen; for 10 m gait, mean value: mean of tested cases
Text: as §2, §3, §4, §1

[6] = tested on: serum soluble IL-2 receptor (sIL-2R); experiment: serum soluble IL-2 receptor (sIL-2R), clinical test in HAM patients; format: in vivo, human; settings: for sIL-2R: individual HAM cases, same s.c. regimen
Procedure: as §3, §4, §1

HTLV-I provirus [7] = experiment: amount of peripheral blood HTLV-I provirus (real-time quantitative PCR), clinical test in HAM patients; format: in vivo, human; settings: for HTLV-I provirus amount, average: average of 12 cases, average at start 1268; for HTLV-I provirus amount: individual HAM cases, same s.c. regimen
Procedure: Therefore, for virological evaluation, the amount of peripheral blood HTLV-I provirus was monitored, immunological markers predicted to vary depending on a decrease in the provirus was simultaneously monitored, and the effect of pentosan polysulfate on HTLV-I was verified. In addition, the clinical effects (lower leg motility function etc.) were evaluated simultaneously with the measurement of the virus amount, and the correlation between a decrease in the virus amount and the clinical effect was confirmed. Furthermore, the amount of HTLV-I provirus was measured before and after administration of pentosan polysulfate, and a virus, amount decreasing effect of pentosan polysulfate was confirmed, whereby the possibility of providing a causal therapy was verified. Subject: 12 cases of HAM patients (9 females, 3 males, age; 49-77 years old, duration of illness; 3-52 years) (Table 1). Test method: Sodium pentosan polysulfate was subcutaneously administered by 25 mg for the first time (0 week), 50 mg 1 week later, 100 mg once a week from the second week to the 7th week to the brachial region. The test medicament was used in 1 ml ampoule of sodium pentosan polysulfate (100 mg/ml) supplied by bene pharmaChem of Germany.

HAM patients [8] = experiment: motility dysfunction level (Osame scale), clinical test in HAM patients; format: in vivo, human; settings: 12 HAM cases; 0-13 scale; changes not found in other cases
Text: As regards the gait disorder due to HAM-related spastic paraplegia, the gait disorder in the present specification includes not only disorder in walking but also disorder in running and ascending and descending stairs, as well as wheelchair state and bedridden state due to gait function disorders. […]
as §1, with “performed. […]” for “performed.”

anti-HTLV-I antibody = anti-HTLV-I antibody titer (PA method), clinical test in HAM patients; format: in vivo, human; settings: start vs week 8, week 12 (Table 4)
Procedure: as §3, §4, §1

HAM patients [9] = experiment: 30 m gait time, clinical test in HAM patients; format: in vivo, human; settings: for 30 m gait: individual HAM cases, same s.c. regimen; for 30 m gait, mean value: mean of tested cases
Text: as §2, §3, §4, §1

HTLV-I provirus [10] = settings: anti-HTLV-I therapy with HDAC inhibitor; cited from earlier work
HAM = settings: recent case-control study; non-patent document 3; cited from earlier work

In the case of heparin, the “HTLV-I infection inhibitory action” value (HTLV-I) is given as “shows an HTLV-I infection inhibitory action” and the “clinical effectiveness for HAM patients” value (HAM patients [1]) is given as “clinically effective for HAM patients”.
For sodium pentosan polysulfate, the “improvement of spasticity (evaluated on modified Ashworth scale (MAS))” value (HAM patients [2]) is given as “(+) (evaluated (+) when either lower leg improved by 1 grade or more)”, the “HTLV-I infection inhibitory action” value (HTLV-I) is given as “very strong HTLV-I infection inhibitory action at a low dose as compared to heparin” and the “descending stairs (10 stairs)” value (HAM patients [3]; week 8) is given as 4.8 seconds (2×) and 4 seconds and 17.5 seconds and 9.1 seconds (2×) and 7.4 seconds and 4.1 seconds. For the same compound, the “descending stairs (10 stairs)” value (HAM patients [3]; week 12) was 4.9 seconds and 4 seconds (3×) and 21.2 seconds and 12.4 seconds and 8.7 seconds and 8.9 seconds, the “descending stairs, mean value” (HAM patients [3]; week 8, mean at start 9.3 (Table 8 in seconds)) was 7.6 and the “descending stairs, mean value” (HAM patients [3]; week 12, mean at start 9.3) was 8.5. For the same compound, the “lymphoblastogenesis test (stimulation index to PHA)” value ([4]; individual HAM cases (table row = case no.), s.c. 25 mg wk 0, 50 mg wk 1, 100 mg weekly wk 2-7, week 8 from start) was 9.2 and 12.4 and 4.7 and 7.9 and 16.3 and 14 and 13.3 and 9.4 and 3.7 and 9.7 and 11.9 and 8.2, the “lymphoblastogenesis test (stimulation index to PHA)” value ([4]; individual HAM cases, same s.c. regimen, week 12 from start (week 5 after completion)) was 6.1 and 7.1 and 6.7 and 15 and 18.1 and 24.7 and 17.2 and 9.3 and 4.9 and 9.2 and 12.2 and 6.9 and the “lymphoblastogenesis test, significance of change” value ([4]; start vs week 8, week 12 (Table 2)) was “significant difference was not observed”. The 10 m gait (HAM patients [5]; week 8) was 7.5 s and 5.5 s and 15.8 s and 6.4 s and 8.9 s and 11.5 s and 6.5 s and 32.5 s and 13.9 s and 18.5 s, the 10 m gait (HAM patients [5]; week 12) was 7.1 s and 5.3 s and 16.9 s and 6.2 s and 9.7 s and 12.5 s and 6.5 s and 31.9 s and 15.8 s and 19.9 s and the “10 m gait, mean value” (HAM patients [5]; week 8, mean at start 14.7 (Table 6 in seconds)) was 12.7. For the same compound, the “10 m gait, mean value” (HAM patients [5]; week 12, mean at start 14.7) was 13.2, the sIL-2R ([6]; week 2) was 511 pg/mL and 1462 pg/mL and 1086 pg/mL and 933 pg/mL and 1475 pg/mL and 1741 pg/mL and 1524 pg/mL and 1405 pg/mL and 2264 pg/mL and 1256 pg/mL and 1688 pg/mL and 1474 pg/mL and the sIL-2R ([6]; week 8) was 577 pg/mL and 1482 pg/mL and 904 pg/mL and 1152 pg/mL and 1475 pg/mL and 1551 pg/mL and 1460 pg/mL and 1954 pg/mL and 2420 pg/mL and 1452 pg/mL and 1774 pg/mL and 1964 pg/mL. For the same compound, the sIL-2R ([6]; week 12) was 627 pg/mL and 1357 pg/mL and 914 pg/mL and 1073 pg/mL and 1557 pg/mL and 1706 pg/mL and 1716 pg/mL and 1864 pg/mL and 2516 pg/mL and 1480 pg/mL and 1882 pg/mL and 1774 pg/mL, the “soluble IL-2 receptor (sIL-2R) test, significance of change” value ([6]; start vs weeks 2, 8, 12 (Table 3)) was “significant difference was not observed” and the “HTLV-I provirus amount, significance of change” value (HTLV-I provirus [7]; all 12 cases, week 8 from start of treatment) was “no significant difference”. The “average decrease in amount of HTLV-I provirus” value (HTLV-I provirus [7]; all 12 cases, week 8 from start of treatment vs start) was “about 9%”, the “HTLV-I provirus amount, average” value (HTLV-I provirus [7]; week 8) was 1153 copy number/10^4 PBMC and the “HTLV-I provirus amount, average” value (HTLV-I provirus [7]; week 12) was 1241 copy number/10^4 PBMC. For the same compound, the HTLV-I provirus amount (HTLV-I provirus [7]; week 8) was 1140 copy number/10^4 PBMC and 648 copy number/10^4 PBMC and 699 copy number/10^4 PBMC and 503 copy number/10^4 PBMC and 999 copy number/10^4 PBMC and 2149 copy number/10^4 PBMC and 479 copy number/10^4 PBMC and 830 copy number/10^4 PBMC and 2030 copy number/10^4 PBMC and 1621 copy number/10^4 PBMC and 837 copy number/10^4 PBMC and 1900 copy number/10^4 PBMC, the HTLV-I provirus amount (HTLV-I provirus [7]; week 12) was 1750 copy number/10^4 PBMC and 668 copy number/10^4 PBMC and 697 copy number/10^4 PBMC and 471 copy number/10^4 PBMC and 1032 copy number/10^4 PBMC and 2052 copy number/10^4 PBMC and 460 copy number/10^4 PBMC and 767 copy number/10^4 PBMC and 2380 copy number/10^4 PBMC and 1971 copy number/10^4 PBMC and 853 copy number/10^4 PBMC and 1794 copy number/10^4 PBMC and the “HTLV-I provirus amount, course after completion of administration” value (HTLV-I provirus [7]; week 5 after completion of administration (week 12)) was “a tendency of returning to the amount at the start of the treatment”. The “improvement in motility dysfunction level” value (HAM patients [8]) was “only in one case (from 6 to 5 in week 8)”, the “anti-HTLV-I antibody test, significance of change” value (anti-HTLV-I antibody) was “significant difference was not observed” and the 30 m gait (HAM patients [9]; week 8) was 22.1 s and 16.8 s and 52.3 s and 20.8 s and 26.7 s and 36.5 s and 20.5 s and 96.5 s and 41.6 s. For the same compound, the 30 m gait (HAM patients [9]; week 12) was 22 s and 16.6 s and 59.6 s and 19.8 s and 28.6 s and 38.1 s and 20.5 s and 97.5 s and 45.4 s, the “30 m gait, mean value” (HAM patients [9]; week 8, mean at start 41.7 (Table 7 in seconds)) was 37.1 and the “30 m gait, mean value” (HAM patients [9]; week 12, mean at start 41.7) was 38.7.
In the case of CCCC(CCC)C(=O)O [valproic acid], the “effect on amount of peripheral blood HTLV-I provirus” value (HTLV-I provirus [10]) is listed as “transiently and markedly increases the amount of peripheral blood HTLV-I provirus”.
In the case of zidovudine+lamivudine, the “effectiveness as anti-HTLV-I therapy for HAM” value (HAM) is listed as “effectiveness thereof was not verified”.
